Assay results reported in PMC9837035 (Nature Communications, 2023).
“And” between values parts separate entries of the source, which are not always exact repeats. Identical values can stand only once. Like-named read-outs stand apart in the source and are kept apart here.

What was measured:
MLL2 [1] = molecular target: MLL2
DOT1L = molecular target: T1, DOT1L (Homo sapiens, UniProt Q8TEK3); assay: Radioisotope-based methyltransferase assay (selectivity); assay type: biochemical
T1 construct: purchased Reaction Biology
T1 sequence (Q8TEK3 whole entry): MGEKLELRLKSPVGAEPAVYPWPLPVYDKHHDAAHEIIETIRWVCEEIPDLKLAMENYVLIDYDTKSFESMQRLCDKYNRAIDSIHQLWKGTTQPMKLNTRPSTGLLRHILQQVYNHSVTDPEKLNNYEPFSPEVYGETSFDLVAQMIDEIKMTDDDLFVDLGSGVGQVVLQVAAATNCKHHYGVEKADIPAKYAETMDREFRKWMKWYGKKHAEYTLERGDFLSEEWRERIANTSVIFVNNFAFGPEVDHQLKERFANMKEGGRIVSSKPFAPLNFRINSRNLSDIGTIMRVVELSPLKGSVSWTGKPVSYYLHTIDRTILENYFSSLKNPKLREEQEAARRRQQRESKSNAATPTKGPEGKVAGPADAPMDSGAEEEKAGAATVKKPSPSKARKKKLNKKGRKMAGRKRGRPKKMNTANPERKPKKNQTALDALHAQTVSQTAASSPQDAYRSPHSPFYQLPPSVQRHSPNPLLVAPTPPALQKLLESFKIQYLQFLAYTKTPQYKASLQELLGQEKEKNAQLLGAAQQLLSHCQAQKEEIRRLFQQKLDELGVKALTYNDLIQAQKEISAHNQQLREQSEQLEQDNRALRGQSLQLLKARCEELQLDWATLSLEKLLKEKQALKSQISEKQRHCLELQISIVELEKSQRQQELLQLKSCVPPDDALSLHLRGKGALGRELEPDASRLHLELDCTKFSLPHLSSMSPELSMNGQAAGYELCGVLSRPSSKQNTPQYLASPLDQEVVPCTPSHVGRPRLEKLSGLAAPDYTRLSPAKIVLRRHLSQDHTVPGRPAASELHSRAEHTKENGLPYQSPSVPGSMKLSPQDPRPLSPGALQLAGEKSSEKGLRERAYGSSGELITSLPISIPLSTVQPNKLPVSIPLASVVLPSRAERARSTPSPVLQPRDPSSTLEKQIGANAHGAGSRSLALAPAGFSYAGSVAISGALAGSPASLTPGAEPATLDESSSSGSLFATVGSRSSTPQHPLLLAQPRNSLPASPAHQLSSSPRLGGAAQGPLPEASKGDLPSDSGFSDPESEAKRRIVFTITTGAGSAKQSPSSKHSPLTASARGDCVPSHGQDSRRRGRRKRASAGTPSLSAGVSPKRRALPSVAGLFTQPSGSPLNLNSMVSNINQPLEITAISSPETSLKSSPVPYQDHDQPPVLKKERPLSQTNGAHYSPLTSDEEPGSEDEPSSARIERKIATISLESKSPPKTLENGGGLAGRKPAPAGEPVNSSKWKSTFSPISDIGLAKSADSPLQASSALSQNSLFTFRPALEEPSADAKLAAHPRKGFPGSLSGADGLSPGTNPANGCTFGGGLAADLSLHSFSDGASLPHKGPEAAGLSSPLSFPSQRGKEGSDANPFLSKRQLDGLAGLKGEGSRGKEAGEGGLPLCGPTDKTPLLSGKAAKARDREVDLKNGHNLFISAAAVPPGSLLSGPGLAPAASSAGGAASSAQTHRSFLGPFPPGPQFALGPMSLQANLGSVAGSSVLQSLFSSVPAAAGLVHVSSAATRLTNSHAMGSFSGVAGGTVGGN

[2] = system: bone marrow cells of rats; assay: In vivo micronucleus assay
Excerpt: A negative control group was established, where the animals received orally 5% methylcellulose solution. […] We counted erythrocytes, recorded the frequencies of polychromatic erythrocyte (PCE) cells in 500 erythrocytes and micronucleated polychromatic erythrocyte (MNPCE) cells in 4000 PCE cells, and calculated the average frequency and the standard deviations for each treatment groups.

MLL2 [3] = assay: Radioisotope-based methyltransferase assay (selectivity); conditions: MLL2, 1 μM SAM
[4] = Liver microsomal stability assay, rat; assay type: in vitro ADME; conditions: for Metabolic stability, % remaining of RK-701: Rat
Protocol: [Human/Rat] Liver microsome analyses (human, rat) were performed in triplicate by the Sumika Chemical Analysis Service (SCAS) according to the standard protocols. […] [Dog/Monkey] Liver microsome analyses (dog, monkey) were performed in duplicate by RIKEN according to the same protocols as SCAS.

PRDM9 = molecular target: T2, PRDM9 (Homo sapiens, UniProt Q9NQV7); assay: Radioisotope-based methyltransferase assay (selectivity); assay type: biochemical; conditions: read-out: IC50
T2 construct: purchased Reaction Biology
T2 sequence (Q9NQV7 whole entry): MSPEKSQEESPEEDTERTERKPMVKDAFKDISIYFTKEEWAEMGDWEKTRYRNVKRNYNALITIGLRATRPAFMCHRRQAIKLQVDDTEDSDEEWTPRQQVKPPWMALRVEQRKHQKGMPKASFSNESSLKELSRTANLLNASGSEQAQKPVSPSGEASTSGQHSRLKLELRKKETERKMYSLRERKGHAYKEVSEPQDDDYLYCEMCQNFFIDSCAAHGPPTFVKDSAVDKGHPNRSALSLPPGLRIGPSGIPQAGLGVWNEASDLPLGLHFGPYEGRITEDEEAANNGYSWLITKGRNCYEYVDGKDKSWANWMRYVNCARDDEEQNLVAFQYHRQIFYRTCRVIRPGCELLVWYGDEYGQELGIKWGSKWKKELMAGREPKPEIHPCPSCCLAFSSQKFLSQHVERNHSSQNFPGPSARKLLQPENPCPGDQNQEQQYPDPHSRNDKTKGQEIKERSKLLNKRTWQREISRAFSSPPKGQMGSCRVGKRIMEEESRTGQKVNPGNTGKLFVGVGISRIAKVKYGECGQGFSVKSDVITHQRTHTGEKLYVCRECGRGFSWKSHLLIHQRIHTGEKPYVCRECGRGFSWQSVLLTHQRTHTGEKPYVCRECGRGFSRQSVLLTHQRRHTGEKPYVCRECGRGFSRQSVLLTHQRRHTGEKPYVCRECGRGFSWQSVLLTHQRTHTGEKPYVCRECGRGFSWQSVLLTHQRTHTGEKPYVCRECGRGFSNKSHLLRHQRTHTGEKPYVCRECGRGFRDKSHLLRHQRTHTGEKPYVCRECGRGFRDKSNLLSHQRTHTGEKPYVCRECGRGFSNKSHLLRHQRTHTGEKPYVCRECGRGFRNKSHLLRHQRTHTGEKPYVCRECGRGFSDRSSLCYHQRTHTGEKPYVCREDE

H3K9me2 in HUDEP-2 cells = assay: Western blotting of H3K9me2 in HUDEP-2 cells; assay type: cell-based, human; conditions: HUDEP-2, 4 days
Protocol: Preparation of cell lysates and western blotting were performed as described previously. Protein from cells lysates in lysis buffer (50 mM Tris-HCl (pH 7.5), 150 mM NaCl, 5 mM EDTA, 0.1% NP-40, 1 mM dithiothreitol) were separated by sodium dodecyl sulfate–polyacrylamide gel electrophoresis (SDS-PAGE) and transferred to a polyvinylidene difluoride (PVDF) membrane (Millipore) by electroblotting. The membranes incubated with primary antibodies overnight at 4 °C and secondary antibodies for 1 h at room temperature. The immune complexes were detected with the Immobilon Western Chemiluminescent HRP Substrate (Millipore). Luminescence was analyzed on a FUSION SOLO S (Vilber). Western blot bands were visualized using Evolution Capt software (M&S Instruments Inc.). Primary antibodies used were anti-G9a (1:1000, CST, #3306), anti–α-tubulin (1:5000, Abcam, ab18251), anti-H3K9me2 (1:3000, Abcam, ab1220), anti-H3 (1:5000, Abcam, ab1791), anti-H3K27me3 (1:3000, Sigma, 07-449), anti-GLP (1:1000, CST, #35005), anti-FLAG (100 ng/ml, Fujifilm, 01422383), anti-His (1:5000, MBL, PM032), anti-BCL11A (1:1000, abcam, ab19487), anti-ZBTB7A (1:1000, CST, #50565), anti-CHD3 (1:1000, Novus Biologicals, NB100-60412), and anti-CHD4 (1:1000, abcam, ab240640). Uncropped scans of all of the blots are available in Source Data file.

[5] = Pharmacokinetic (PK) assay; assay type: in vivo, mice
Protocol: PK studies were performed using 8-week-old male Crl:CD1 ICR mice in accordance with the animal experimental protocol, and procedures were approved by the Animal Care and Ethics Committee of Sekisui Medical. […] […] RK-701 in samples were analyzed by liquid chromatography-tandem mass spectrometry (LC–MS/MS) after deproteinization with acetonitrile. […] PK parameters were calculated using the program Phenix WinNolin (Certara).
The LC-MS/MS system comprised of ACQUITY Ultra Performance LC (Waters) and 4000 QTRAP (Sciex). Acquity UPLC BEH C18 (2.1 × 50 mm, 1.7 μm, Waters) was used as analytical column. The mobile phase consisted of 0.1% formic acid in water (mobile phase A) and acetonitrile (mobile phase B) at a total flow rate of 0.5 mL/min with a column temperature of 40 °C. The chromatographic separation was achieved using gradient elution. The gradient program was: 20% B from 0.0–0.1 min, 20–95% B from 0.1–1.5 min, 95–95% B from 1.5–2.0 min, and 20% B from 2.01–3.0 min. The MS/MS instrument was operated in positive-ion mode with an ion spray voltage of 4200 V, entrance potential of 10 V and source temperature at 600 °C. The curtain gas was set at 12 psi, ion source gas 1 at 40 psi, ion source gas 2 at 50 psi. […] Data acquisition and quantitation were performed by using Analyst (ver.1.4.3, Sciex).

MLL2 [6] = molecular target: T3, MLL2 (Homo sapiens, UniProt O14686)
T3 sequence (O14686 5319-5537): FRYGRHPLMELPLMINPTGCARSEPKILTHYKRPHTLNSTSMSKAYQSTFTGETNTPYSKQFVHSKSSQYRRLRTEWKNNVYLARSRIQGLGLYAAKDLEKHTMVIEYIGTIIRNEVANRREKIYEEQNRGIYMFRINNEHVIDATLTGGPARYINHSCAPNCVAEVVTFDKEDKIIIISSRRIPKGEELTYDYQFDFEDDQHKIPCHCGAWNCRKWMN
T3 sequence (Q9C005 whole entry, further chain): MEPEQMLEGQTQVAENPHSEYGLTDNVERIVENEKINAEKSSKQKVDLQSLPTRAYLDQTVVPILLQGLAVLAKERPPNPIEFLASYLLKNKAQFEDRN
T3 sequence (Q15291 whole entry, further chain): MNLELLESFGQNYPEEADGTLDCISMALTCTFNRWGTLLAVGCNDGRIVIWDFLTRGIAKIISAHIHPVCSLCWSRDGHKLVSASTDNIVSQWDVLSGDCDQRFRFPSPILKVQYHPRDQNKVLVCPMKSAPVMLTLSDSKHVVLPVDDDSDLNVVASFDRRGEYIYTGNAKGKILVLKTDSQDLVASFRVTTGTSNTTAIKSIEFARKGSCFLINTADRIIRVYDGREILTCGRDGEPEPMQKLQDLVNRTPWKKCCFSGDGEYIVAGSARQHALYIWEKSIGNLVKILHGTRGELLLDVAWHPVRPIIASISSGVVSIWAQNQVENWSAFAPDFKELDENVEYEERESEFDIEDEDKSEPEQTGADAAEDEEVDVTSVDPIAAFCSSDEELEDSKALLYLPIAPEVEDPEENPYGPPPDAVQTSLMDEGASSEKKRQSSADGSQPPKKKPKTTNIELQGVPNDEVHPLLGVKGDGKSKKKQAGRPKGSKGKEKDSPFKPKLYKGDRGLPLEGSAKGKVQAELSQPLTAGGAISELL
T3 sequence (Q9UBL3 whole entry, further chain): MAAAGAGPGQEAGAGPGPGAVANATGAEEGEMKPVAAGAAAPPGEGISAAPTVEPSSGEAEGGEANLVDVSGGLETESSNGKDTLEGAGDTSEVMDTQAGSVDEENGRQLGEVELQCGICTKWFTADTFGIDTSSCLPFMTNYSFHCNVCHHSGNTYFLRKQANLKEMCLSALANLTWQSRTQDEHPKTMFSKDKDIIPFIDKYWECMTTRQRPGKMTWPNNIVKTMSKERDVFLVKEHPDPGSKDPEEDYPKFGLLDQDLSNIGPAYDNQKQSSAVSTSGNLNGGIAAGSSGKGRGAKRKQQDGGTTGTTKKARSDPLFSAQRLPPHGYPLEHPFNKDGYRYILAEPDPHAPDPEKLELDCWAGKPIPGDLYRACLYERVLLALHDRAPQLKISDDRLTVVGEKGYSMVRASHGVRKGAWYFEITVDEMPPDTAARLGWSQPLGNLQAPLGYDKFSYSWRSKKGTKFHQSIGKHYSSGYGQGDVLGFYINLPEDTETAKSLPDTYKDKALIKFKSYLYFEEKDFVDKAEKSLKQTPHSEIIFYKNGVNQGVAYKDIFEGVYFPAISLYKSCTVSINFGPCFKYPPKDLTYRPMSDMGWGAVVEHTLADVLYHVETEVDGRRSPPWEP

MLL2 [7] = molecular target: T3, MLL2; assay: Radioisotope-based methyltransferase assay (selectivity); conditions: MLL2, 1 μM SAM
T3 sequence (O14686 5319-5537): as the sequence (O14686 5319-5537) above
T3 sequence (Q9C005 whole entry, further chain): as the sequence (Q9C005 whole entry, further chain) above
T3 sequence (Q15291 whole entry, further chain): as the sequence (Q15291 whole entry, further chain) above
T3 sequence (Q9UBL3 whole entry, further chain): as the sequence (Q9UBL3 whole entry, further chain) above

PRMT6 = PRMT6 (Homo sapiens, UniProt Q96LA8); assay: biochemical
Chain of PRMT6 (Q96LA8 whole entry): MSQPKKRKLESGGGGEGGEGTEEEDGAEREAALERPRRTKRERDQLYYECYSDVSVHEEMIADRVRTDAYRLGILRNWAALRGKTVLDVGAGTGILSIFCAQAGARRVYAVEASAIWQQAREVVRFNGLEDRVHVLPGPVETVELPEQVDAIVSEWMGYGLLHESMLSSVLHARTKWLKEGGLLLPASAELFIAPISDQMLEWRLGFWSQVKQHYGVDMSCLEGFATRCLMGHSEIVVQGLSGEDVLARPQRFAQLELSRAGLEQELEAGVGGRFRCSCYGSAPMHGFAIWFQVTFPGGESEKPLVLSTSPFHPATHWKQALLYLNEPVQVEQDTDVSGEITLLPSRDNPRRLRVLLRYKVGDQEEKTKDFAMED

[8] = Dose 10 mg/kg, individual animals
[9] = Dose 30 mg/kg, individual animals
[10] = Dose 100 mg/kg, individual animals
[11] = male rats, oral 2 weeks, 10 mg/kg, Mean ± S.D.
[12] = male rats, oral 2 weeks, 30 mg/kg, Mean ± S.D.
[13] = male rats, oral 2 weeks, 100 mg/kg, Mean ± S.D.
[14] = male, Crl:CD1 ICR, mouse, ip, mice, plasma, single intraperitoneal 25 mg/kg

Cc1c(C(=O)NC(CCC2CC2)C(=O)Nc2ccc(C#N)cc2)[nH]c2c1C(=O)CC(C)(C)C2 (stereo not drawn) [RK-701]
IC50 (MLL2 [1]): > 100 µM | IC50 (DOT1L; 1 μM SAM): > 100 µM | IC50 (DOT1L; RK-701 in duplicate): > 100 µM | MNPCE (%) [2, 8]: 0.15% and 0.18% and 0.13% and 0.23% | No. of PCE in 500 erythrocytes [2, 8]: 331 and 285 and 278 and 305 and 288 | Number of MNPCE in 4000 PCE [2, 8]: 6 and 7 and 5 and 9 | PCE (%) [2, 8]: 66.2% and 57% and 55.6% and 61% and 57.6% | MNPCE (%) [2, 9]: 0.08% and 0.1% | No. of PCE in 500 erythrocytes [2, 9]: 299 and 308 and 294 and 330 and 306 | Number of MNPCE in 4000 PCE [2, 9]: 3 and 4 | PCE (%) [2, 9]: 59.8% and 61.6% and 58.8% and 66% and 61.2% | MNPCE (%) [2, 10]: 0.13% and 0.1% and 0.18% and 0.15% | No. of PCE in 500 erythrocytes [2, 10]: 258 and 313 and 314 and 323 and 328 | Number of MNPCE in 4000 PCE [2, 10]: 5 and 4 and 7 and 6 | PCE (%) [2, 10]: 51.6% and 62.6% and 62.8% and 64.6% and 65.6% | MNPCE (%) [2, 11]: 0.17 ± 0.04% | No. of PCE in 500 erythrocytes [2, 11]: 297 ± 21 | PCE (%) [2, 11]: 59.5 ± 4.2% | MNPCE (%) [2, 12]: 0.09 ± 0.01% | No. of PCE in 500 erythrocytes [2, 12]: 307 ± 14 | Number of MNPCE in 4000 PCE [2, 12]: 4 ± 1 | PCE (%) [2, 12]: 61.5 ± 2.8% | MNPCE (%) [2, 13]: 0.13 ± 0.03% | No. of PCE in 500 erythrocytes [2, 13]: 307 ± 28 | Number of MNPCE in 4000 PCE [2, 13]: 5 ± 1 | PCE (%) [2, 13]: 61.4 ± 5.6% | Number of MNPCE in 4000 PCE ([2]; male rats, oral once a day 2 weeks, 10 mg/kg, Mean ± S.D.): 7 ± 1 | formation of micronuclei in bone marrow cells ([2]; rats, oral, up to 100 mg/kg, two weeks): did not cause the formation of micronuclei | IC50 (MLL2 [3]): > 100 µM | Metabolic stability, % remaining of RK-701 ([4]; Time 5, replicate values): 89% and 81.8% | Metabolic stability, % remaining of RK-701 ([4]; Time 10, replicate values): 86.2% and 80.2% | Metabolic stability, % remaining of RK-701 ([4]; Time 20, replicate values): 63% and 58.9% | Metabolic stability, % remaining of RK-701 ([4]; Time 30, replicate values): 53.3% and 55.8% | Metabolic stability, % remaining of RK-701 ([4]; Time 60, replicate values): 36.1% and 33.5% | remaining at 5 min, 1 µM ([4]; rat, liver microsomes, Metabolic stability, % remaining of RK-701, Rat, Time 5, replicate values): 89.1% | remaining at 10 min, 1 µM ([4]; rat, liver microsomes, Metabolic stability, % remaining of RK-701, Rat, Time 10, replicate values): 83.1% | remaining at 20 min, 1 µM ([4]; rat, liver microsomes, Metabolic stability, % remaining of RK-701, Rat, Time 20, replicate values): 61.7% | remaining at 60 min, 1 µM ([4]; rat, liver microsomes, Metabolic stability, % remaining of RK-701, Rat, Time 60, replicate values): 35.6% | microsomal CLint at 1 μM ([4]; rat, liver microsomes, read-out: Metabolic stability in liver microsomes CLint): 33 µL/min/mg | IC50 (PRDM9; PRDM9, 1 μM SAM): > 100 µM | IC50 (PRDM9; PRDM9, RK-701 in duplicate): > 100 µM | cellular H3K9me2 levels (H3K9me2 in HUDEP-2 cells): dose-dependent reduction | concentration at 1 h ([5]; Time 1 h, read-out: concentration (pharmacokinetic properties)): 17.9827 µM and 11.6451 µM | concentration at 1 h ([5]; Time 2 h, read-out: concentration (pharmacokinetic properties)): 17.6692 µM and 34.4874 µM | concentration at 1 h ([5]; Time 4 h, read-out: concentration (pharmacokinetic properties)): 51.2832 µM and 42.7733 µM | concentration at 1 h ([5]; Time 8 h, read-out: concentration (pharmacokinetic properties)): 20.155 µM and 23.2902 µM | AUC(0-inf) [5, 14]: 418 ± 7 µM·h | Cmax [5, 14]: 42.4 µM | Tmax [5, 14]: 4 h | half-life [5, 14]: 1.4 ± 0.1 h | concentration at 1 h ([5]; male, Crl:CD1 ICR, mouse, plasma, intraperitoneal, 25 mg/kg, Time 1 h, read-out: concentration (pharmacokinetic properties)): 9.2 µM | concentration at 2 h ([5]; male, Crl:CD1 ICR, mouse, plasma, intraperitoneal, 25 mg/kg, Time 2 h, read-out: concentration (pharmacokinetic properties)): 25.8 µM | concentration at 4 h ([5]; male, Crl:CD1 ICR, mouse, plasma, intraperitoneal, 25 mg/kg, Time 4 h, read-out: concentration (pharmacokinetic properties)): 33.1 µM | concentration at 8 h ([5]; male, Crl:CD1 ICR, mouse, plasma, intraperitoneal, 25 mg/kg, Time 8 h, read-out: concentration (pharmacokinetic properties)): 28.2 µM

Nc1ncnc2c1ncn2[C@@H]1O[C@H](CSCC[C@H](N)C(=O)O)[C@@H](O)[C@H]1O [SAH, S-(5'-Adenosyl)-L-homocysteine, reference compound]
IC50 (MLL2 [6]): 11.6 µM | IC50 (MLL2 [7]): 11.6 µM | IC50 (PRMT6): 0.408 µM
